Measured values from patent EP1832586A1, “Thiazole-piperidine derivatives in treatment of diseases of liver and the pancreas” (Oridis Biomed Forschungs- und Entwicklungs GmbH, priority 2006, dated 2007).

Columns and labels:
Assay type in all cases: cell-based
HuH7 = assay: CellTiter-Glo luminescent cell viability (proliferation) assay, HuH7; conditions: inhibition of HuH7 (human hepatoma) proliferation, 48 hours incubation, 10% FCS
Description: (§1) To practically assess the impact of the thiazole-piperidine derivatives, e.g. derivatives of piperidinyl-thiazole carboxylic acid and/or piperidinyl thiazole carboxamide, in the treatment and/or prevention of diseases according to the invention, the inhibition of cell proliferation is determined by using a luminescent cell viability assay (CellTiter-Glo®; Promega, Madison, USA). The assay is based on the relation that the ATP content is directly proportional to the number of cells present in the culture. The CellTiter-Glo® assay is performed to measure the proliferation rate of human hepatoma (HuH7, PLC/PRF/5, Hep3B, SK-Hep1), human hepatoblastoma (HepG2), human colon carcinoma (CX-2), human breast cancer (SK-Br-3), human ovarian carcinoma (HeLa) and human pancreatic carcinoma (DAN-G) cell lines. […] In particular, the compound according to formula (1) wherein R^1 is 4-isopropoxycarbonylphenyl, R^2 is 3-indolylmethyl, R^3 is hydrogen, R^4 is hydrogen, n is zero, A is a single bond, B is carbonyl, and wherein the residue R^1NR^3CO is connected to the carbon atom bound to nitrogen of the thiazole ring (compound no. XI in Table 1) inhibits proliferation of the human cell lines HepG2 and Hep3B with 10.8 and 3.5 µM, respectively.
(§2) To determine the inhibition of cell proliferation a luminescent cell viability assay (CellTiter-Glo®; Promega, Madison, USA) is implemented. The assay is based on the relation that the ATP content is directly proportional to the number of cells present in the culture (Technical Bulletin No. 228 "CellTiter-Glo® Luminescent Cell viability Assay", Revised 2/04. Promeg, Madison, USA). The CellTiter-Glo® assay is performed to measure the proliferation rate of human hepatoma (HuH7, PLC/PRF/5, Hep3B, SK-Hep1), human hepatoblastoma (HepG2), human colon carcinoma (CX-2), human breast cancer (SK-Br-3), human ovarian carcinoma (HeLa) and human pancreatic carcinoma (DAN-G) cell lines. 3000 viable cells (viability ≥ 90%) are seeded in opaque-walled 96-well plates and incubated for 24 hours in DMEM, supplemented with 2 mM glutamin. Cell proliferation is stimulated by addition of FCS to a final concentration of 10% (v/v). Simultaneously the compounds (see Table 1 and 2) are added in a concentration range of 0 to 20 µM. Triplicates are measured for each concentration. Cells and compounds (see Table 1 and 2) are incubated for a period of 48 hours in a volume of 140 µl cell culture medium (10% (v/v) FCS, 2 mM Glutamin, DMEM). The compounds according to the invention are dissolved in 60% to 100% (v/v) DMSO at a concentration of 2 mM. The final DMSO concentration under assay conditions never exceeds 1% (v/v). Throughout the assay cells are kept in a humidified incubator (95% rH) at 37°C and 5% CO2.
(§3) The final cell number is determined after 48 hour of incubation. Therefore 140 µl CellTiter-Glo®Reagent is added in each well. The contents are mixed on an orbital shaker for 2 minutes at room temperature. After subsequent incubation for additional 10 minutes at room temperature the luminescence signal is recorded within 30 min. EC50 values are calculated using the four-parametric Hill equation (Sigma Plot). Control values are: • 1) 10% (v/v) FCS, 2 mM glutamin, DMEM -> maximum cell number • 2) 2 mM glutamin, DMEM -> initial cell number

HeLa = assay: CellTiter-Glo luminescent cell viability (proliferation) assay, HeLa; conditions: Hela (human ovarian carcinoma [sic]) proliferation, 48 hours incubation, 10% FCS
Description: as §1, §2, §3

DAN-G = assay: CellTiter-Glo luminescent cell viability (proliferation) assay, DAN-G; conditions: DAN-G (human pancreatic carcinoma) proliferation, 48 hours incubation, 10% FCS
Description: as §1, §2, §3

CX-2 = assay: CellTiter-Glo luminescent cell viability (proliferation) assay, CX-2; conditions: CX-2 (human colon carcinoma) proliferation, 48 hours incubation, 10% FCS
Description: as §1, §2, §3

SK-Br-3 = assay: CellTiter-Glo luminescent cell viability (proliferation) assay, SK-Br-3; conditions: Sk-Br-3 (human breast cancer) proliferation, 48 hours incubation, 10% FCS
Description: as §1, §2, §3

COc1cccc(CCNC(=O)c2csc(C3CCN(C(=O)CC4C=Nc5ccccc54)CC3)n2)c1 (stereo not shown) [XXXVIII]
EC50 (HuH7; Homo sapiens, Huh-7, 48 h): 20.6 µM

Cn1nc(-c2ccccc2)cc1NC(=O)c1csc(C2CCN(C(=O)Cc3c[nH]c4ccccc34)CC2)n1 [VII]
EC50 (HeLa): 12.5 µM
EC50 (DAN-G): 7.1 µM
EC50 (CX-2): > 20 µM
EC50 (HuH7; Huh-7): 3.38 µM
EC50 (SK-Br-3): 10.8 µM

Cc1ccc(S(=O)(=O)N2CCC(c3nc(C(=O)Nc4nnc(C(F)(F)F)s4)cs3)CC2)cc1Cl [XXVI]
EC50 (HeLa): 11.1 µM
EC50 (DAN-G): 13.5 µM
EC50 (CX-2): 20.2 µM
EC50 (HuH7; Homo sapiens, Huh-7, 48 h): 1.15 µM
EC50 (SK-Br-3): 19.3 µM

O=C(Nc1cc(-c2ccccc2)n[nH]1)c1csc(C2CCN(C(=O)c3cc4ccccc4o3)CC2)n1 [XLIV]
EC50 (HuH7; Homo sapiens, Huh-7, 48 h): 2.53 µM

Cc1nc(C)c(C(=O)N2CCC(c3nc(C(=O)Nc4cc(-c5cccs5)nn4C)cs3)CC2)s1 [XXXV]
EC50 (HuH7; Homo sapiens, Huh-7, 48 h): 3.5 µM

Cc1nc(C)c(C(=O)N2CCC(c3nc(C(=O)Nc4cc(-c5ccco5)n[nH]4)cs3)CC2)s1 [XLVIII]
EC50 (HuH7; Homo sapiens, Huh-7, 48 h): 13.9 µM

C#CCOC(=O)N1CCC(c2nc(C(=O)Nc3[nH]nc(C)c3-c3ccccc3)cs2)CC1 [L]
EC50 (HuH7; Homo sapiens, Huh-7, 48 h): 5.4 µM

O=C(Nc1cccc(-c2cnco2)c1)c1csc(C2CCN(C(=O)Cc3c[nH]c4ccccc34)CC2)n1 [IX]
EC50 (HuH7; Huh-7): 12.1 µM

COc1ccc(C(=O)N2CCC(c3nc(C(=O)NC4C=C(c5ccccc5)N=N4)cs3)CC2)c(OC)c1OC (stereo not shown) [XX]
EC50 (HeLa): 10.3 µM
EC50 (DAN-G): 7.8 µM
EC50 (CX-2): > 20 µM
EC50 (HuH7; Homo sapiens, Huh-7, 48 h): 5.31 µM
EC50 (SK-Br-3): 19.7 µM

Cn1nc(-c2ccccc2)cc1NC(=O)c1csc(C2CCN(C(=O)c3c(F)cccc3Cl)CC2)n1 [XLIX]
EC50 (HuH7; Homo sapiens, Huh-7, 48 h): 3.03 µM

Cc1nc(NC(=O)c2csc(C3CCN(C(=O)Cc4c[nH]c5ccccc45)CC3)n2)sc1C [XVII]
EC50 (HeLa): 23.5 µM
EC50 (DAN-G): 5.59 µM
EC50 (CX-2): > 20 µM
EC50 (SK-Br-3): 18.9 µM

COc1ccccc1C(=O)NNC(=O)c1csc(C2CCN(C(=O)CC3C=Nc4ccccc43)CC2)n1 (stereo not shown) [XXIII]
EC50 (HuH7; Homo sapiens, Huh-7, 48 h): 16.7 µM

Cc1ccc(C(=O)NNC(=O)c2csc(C3CCN(C(=O)CC4C=Nc5ccccc54)CC3)n2)s1 (stereo not shown) [LV]
EC50 (HuH7; Homo sapiens, Huh-7, 48 h): 4.04 µM

Cc1ccc(OCC(=O)N2CCC(c3nc(C(=O)Nc4nccs4)cs3)CC2)cc1C [XXV]
EC50 (HuH7; Homo sapiens, Huh-7, 48 h): 5.8 µM

C#CCOC(=O)N1CCC(c2nc(C(=O)Nc3cc(-c4ccccc4)n[nH]3)cs2)CC1 [XXVIII]
EC50 (HuH7; Huh-7): 2.27 µM

O=C(Nc1ccc(F)c(F)c1)c1csc(C2CCN(C(=O)CC3C=Nc4ccccc43)CC2)n1 (stereo not shown) [XXIV]
EC50 (HeLa): 8.91 µM
EC50 (DAN-G): 2.55 µM
EC50 (CX-2): 10.3 µM
EC50 (HuH7; Homo sapiens, Huh-7, 48 h): 0.25 µM
EC50 (SK-Br-3): 16.6 µM

CC(C)(Cc1ccc(F)cc1)NC(=O)c1csc(C2CCN(C(=O)CC3C=Nc4ccccc43)CC2)n1 (stereo not shown) [VI]
EC50 (HeLa): 13.5 µM
EC50 (DAN-G): 11.2 µM
EC50 (CX-2): 19.2 µM
EC50 (HuH7; Homo sapiens, Huh-7, 48 h): 4.81 µM
EC50 (SK-Br-3): 10.4 µM

Cn1nc(-c2ccccc2)cc1NC(=O)c1csc(C2CCN(C(=O)C3CCCCC3)CC2)n1 [LIV]
EC50 (HuH7; Homo sapiens, Huh-7, 48 h): 5.5 µM

O=C(CC1C=Nc2ccccc21)N1CCC(c2nc(C(=O)N3CCN(c4c(Cl)cncc4Cl)CC3)cs2)CC1 (stereo not shown) [XLIII]
EC50 (HuH7; Homo sapiens, Huh-7, 48 h): 4.74 µM

CCOc1cccc(C(=O)NNC(=O)c2csc(C3CCN(C(=O)CC4C=Nc5ccccc54)CC3)n2)c1 (stereo not shown) [LVIII]
EC50 (HuH7; Homo sapiens, Huh-7, 48 h): 4.58 µM

O=C(NC1CCN(Cc2ccccc2)C1)c1csc(C2CCN(C(=O)CC3C=Nc4ccccc43)CC2)n1 (stereo not shown) [XXIX]
EC50 (HuH7; Homo sapiens, Huh-7, 48 h): 2.7 µM

COc1ccc(C(=O)N2CCC(c3nc(C(=O)Nc4cc(-c5ccco5)n[nH]4)cs3)CC2)c(OC)c1OC [LVI]
EC50 (HeLa): 10.5 µM
EC50 (DAN-G): 16.9 µM
EC50 (CX-2): > 20 µM
EC50 (HuH7; Homo sapiens, Huh-7, 48 h): 3.6 µM
EC50 (SK-Br-3): > 20 µM

CS(=O)(=O)c1ccc(CNC(=O)c2csc(C3CCN(C(=O)CC4C=Nc5ccccc54)CC3)n2)cc1 (stereo not shown) [XIX]
EC50 (HuH7; Homo sapiens, Huh-7, 48 h): 8.5 µM

Cc1nc(C)c(C(=O)N2CCC(c3nc(C(=O)Nc4cc(-c5ccccc5)nn4C)cs3)CC2)s1 [XXII]
EC50 (HuH7; Huh-7): 5.4 µM

CC(=O)c1cc2cc(NC(=O)c3csc(C4CCN(C(=O)CC5C=Nc6ccccc65)CC4)n3)ccc2o1 (stereo not shown) [XXXII]
EC50 (HuH7; Homo sapiens, Huh-7, 48 h): 3.08 µM

CN(NC(=O)c1csc(C2CCN(C(=O)CC3C=Nc4ccccc43)CC2)n1)c1cnc2ccccc2n1 (stereo not shown) [XLV]
EC50 (HuH7; Homo sapiens, Huh-7, 48 h): 7.56 µM

COc1ccc(CNC(=O)c2csc(C3CCN(C(=O)CC4C=Nc5ccccc54)CC3)n2)cc1 (stereo not shown) [XLI]
EC50 (HuH7; Homo sapiens, Huh-7, 48 h): 5.9 µM

C#CC1(NC(=O)c2csc(C3CCN(C(=O)CC4C=Nc5ccccc54)CC3)n2)CCCCC1 (stereo not shown) [LVII]
EC50 (HuH7; Homo sapiens, Huh-7, 48 h): 5.1 µM

O=C(Nc1ccc2c(c1)OCCO2)c1csc(C2CCN(C(=O)NC3C=C(c4ccccc4)N=N3)CC2)n1 (stereo not shown) [LII]
EC50 (HuH7; Homo sapiens, Huh-7, 48 h): 19.5 µM

COc1ccc(C(=O)N2CCC(c3nc(C(=O)Nc4cc(-c5cccs5)n[nH]4)cs3)CC2)c(OC)c1OC [XXXIX]
EC50 (HuH7; Huh-7): 2.19 µM

O=C(Nc1cc(-c2ccccc2)[nH]n1)c1csc(C2CCN(C(=O)Cc3c[nH]c4ccccc34)CC2)n1 [I]
EC50 (HuH7; Huh-7): 5.35 µM

Cc1cnc(NC(=O)c2csc(C3CCN(C(=S)Nc4ccc(N(C)C)cc4)CC3)n2)s1 [XLII]
EC50 (HuH7; Homo sapiens, Huh-7, 48 h): 2.2 µM

O=C(CC1C=Nc2ccccc21)N1CCC(c2nc(C(=O)N3CCN(c4ccc(Cl)c(Cl)c4)CC3)cs2)CC1 (stereo not shown) [LI]
EC50 (HuH7; Homo sapiens, Huh-7, 48 h): 4.9 µM

C=CCSc1ncccc1C(=O)N1CCC(c2nc(C(=O)Nc3cc(C(C)(C)C)n[nH]3)cs2)CC1 [XXX]
EC50 (HuH7; Homo sapiens, Huh-7, 48 h): 4.2 µM

Cc1csc(NC(=O)c2csc(C3CCN(C(=O)CC4C=Nc5ccccc54)CC3)n2)c1C(N)=O (stereo not shown) [XIV]
EC50 (HuH7; Homo sapiens, Huh-7, 48 h): 12.9 µM

Cc1cc(Cl)ccc1CNC(=O)c1csc(C2CCN(C(=O)CC3C=Nc4ccccc43)CC2)n1 (stereo not shown) [XXXVI]
EC50 (HuH7; Homo sapiens, Huh-7, 48 h): 3.95 µM

Cc1nc(C)c(C(=O)N2CCC(c3nc(C(=O)NC4C=C(c5cccs5)N=N4)cs3)CC2)s1 (stereo not shown) [XVI]
EC50 (HeLa): 10.5 µM
EC50 (DAN-G): 7.99 µM
EC50 (CX-2): > 20 µM
EC50 (SK-Br-3): > 20 µM

Cc1ccc(NC(=O)c2csc(C3CCN(C(=O)CC4C=Nc5ccccc54)CC3)n2)c(F)c1 (stereo not shown) [XLVI]
EC50 (HuH7; Homo sapiens, Huh-7, 48 h): 4 µM

COc1ccc(CN2CCN(C(=O)c3csc(C4CCN(C(=O)CC5C=Nc6ccccc65)CC4)n3)CC2)cc1 (stereo not shown) [XXVII]
EC50 (HuH7; Homo sapiens, Huh-7, 48 h): 35.6 µM

O=C(Nc1ccc2c(c1)C(=O)OC2)c1csc(C2CCN(C(=O)CC3C=Nc4ccccc43)CC2)n1 (stereo not shown) [LIX]
EC50 (HuH7; Homo sapiens, Huh-7, 48 h): 7.13 µM

CCOc1ccccc1N1CCN(C(=O)c2csc(C3CCN(C(=O)CC4C=Nc5ccccc54)CC3)n2)CC1 (stereo not shown) [XII]
EC50 (HuH7; Homo sapiens, Huh-7, 48 h): 13.4 µM

COc1ccc(C(N)=O)cc1NC(=O)c1csc(C2CCN(C(=O)Cc3ccccc3Cl)CC2)n1 [XXXIV]
EC50 (HuH7; Homo sapiens, Huh-7, 48 h): 4.24 µM

Cn1nc(-c2cccs2)cc1NC(=O)c1csc(C2CCN(C(=O)c3ccccc3C(F)(F)F)CC2)n1 [XVIII]
EC50 (HuH7; Huh-7): 13.4 µM
